We go through 22 compounds from patent publication US7741327B2 (Hoffmann-La Roche Inc., priority 2008, dated 2010).

The test has as its target T1, Recombinant human liver GK1 (GST-GK) (Homo sapiens, UniProt P35557).
T1 construct: made in house; host or cells: E. coli
T1 sequence (P35557 1-466 isoform P35557-2): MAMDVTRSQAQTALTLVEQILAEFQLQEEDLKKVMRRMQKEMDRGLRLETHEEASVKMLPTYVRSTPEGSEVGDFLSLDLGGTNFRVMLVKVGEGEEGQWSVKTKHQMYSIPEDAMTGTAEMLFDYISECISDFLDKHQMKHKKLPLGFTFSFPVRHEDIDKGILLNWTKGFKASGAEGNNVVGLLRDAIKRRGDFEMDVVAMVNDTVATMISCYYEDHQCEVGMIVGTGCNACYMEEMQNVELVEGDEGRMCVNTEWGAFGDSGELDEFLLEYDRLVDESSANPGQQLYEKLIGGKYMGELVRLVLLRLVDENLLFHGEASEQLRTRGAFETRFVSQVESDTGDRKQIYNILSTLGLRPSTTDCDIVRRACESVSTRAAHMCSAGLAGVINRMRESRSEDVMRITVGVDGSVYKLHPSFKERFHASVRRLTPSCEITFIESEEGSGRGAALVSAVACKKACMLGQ
Kind of test: In vitro glucokinase activity (G6PDH-coupled NADH assay). As to conditions: 30° C., 5 mM D-glucose, 10% DMSO. In kind it is biochemical. The method in brief:
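GST-tagged human liver GK1 from E. coli, assayed at 30° C in 25 mM Hepes pH 7.1 with 5 mM D-glucose, 1 mM ATP, 1.8 mM NAD and G6PDH coupling, 10% DMSO final; reaction started with enzyme after 10 min preincubation. NADH formation followed at OD340; SC1.5 is activator concentration giving 50% increase over DMSO control rate.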

Regarding `CC(C)C[C@@H](C(=O)Nc1ccn(C[C@@H](O)CO)n1)N1CC(Oc2cccc(N3CCCC3)c2F)=CC1=O` [Example 142, (S)-2-[4-(2-Fluoro-3-pyrrolidin-1-yl-phenoxy)-2-oxo-2,5-dihydro-pyrrol-1-yl]-4-methyl-pentanoic acid [1-((R)-2,3-dihydroxy-propyl)-1H-pyrazol-3-yl]-amide], the “SC1.5 (concentration of activator that produced a 50% increase in the activity of GK)” value was found to be 0.234 µM. Consider `CC(C)C[C@@H](C(=O)Nc1ccn(C)n1)N1CC(Oc2cccc(C(C)(C)O)c2F)=CC1=O` [Example 143, (S)-2-{4-[2-Fluoro-3-(1-hydroxy-1-methyl-ethyl)-phenoxy]-2-oxo-2,5-dihydro-pyrrol-1-yl}-4-methyl-pentanoic acid (1-methyl-1H-pyrazol-3-yl)-amide], for which the “SC1.5 (concentration of activator that produced a 50% increase in the activity of GK)” value was 2.089 µM. Take `C=Cc1cccc(OC2=CC(=O)N([C@@H](CC(C)C)C(=O)Nc3ccn(C[C@@H]4COC(C)(C)O4)n3)C2)c1F` [Example 144, (S)-2-[4-(2-Fluoro-3-vinyl-phenoxy)-2-oxo-2,5-dihydro-pyrrol-1-yl]-4-methyl-pentanoic acid [1-((R)-2,2-dimethyl-[1,3]dioxolan-4-yl-methyl)-1H-pyrazol-3-yl]-amide]: the “SC1.5 (concentration of activator that produced a 50% increase in the activity of GK)” value stood at 0.251 µM. For the compound `C=Cc1cccc(OC2=CC(=O)N([C@@H](CC(C)C)C(=O)Nc3ccn(C[C@@H](O)CO)n3)C2)c1F` [Example 145, (S)-2-[4-(2-Fluoro-3-vinyl-phenoxy)-2-oxo-2,5-dihydro-pyrrol-1-yl]-4-methyl-pentanoic acid [1-((R)-2,3-dihydroxy-propyl)-1H-pyrazol-3-yl]-amide], the “SC1.5 (concentration of activator that produced a 50% increase in the activity of GK)” value turned out to be 0.134 µM.

With `CC(C)C[C@@H](C(=O)Nc1ccn(C[C@@H]2COC(C)(C)O2)n1)N1CC(Oc2cccc(C3CC3)c2F)=CC1=O` [Example 146, (S)-2-[4-(3-Cyclopropyl-2-fluoro-phenoxy)-2-oxo-2,5-dihydro-pyrrol-1-yl]-4-methyl-pentanoic acid [1-((R)-2,2-dimethyl-[1,3]dioxolan-4-yl-methyl)-1H-pyrazol-3-yl]-amide], the “SC1.5 (concentration of activator that produced a 50% increase in the activity of GK)” value was 0.21 µM. The figure for `CC(C)C[C@@H](C(=O)Nc1ccn(C[C@@H](O)CO)n1)N1CC(Oc2cccc(C3CC3)c2F)=CC1=O` [Example 147, (S)-2-[4-(3-Cyclopropyl-2-fluoro-phenoxy)-2-oxo-2,5-dihydro-pyrrol-1-yl]-4-methyl-pentanoic acid [1-((R)-2,3-dihydroxy-propyl)-1H-pyrazol-3-yl]-amide] is 0.105 µM; for `CCOC(=O)Cn1ccc(NC(=O)[C@H](CC(C)C)N2CC(Oc3cccc(C4CC4)c3F)=CC2=O)n1` [Example 148, (3-{(S)-2-[4-(3-Cyclopropyl-2-fluoro-phenoxy)-2-oxo-2,5-dihydro-pyrrol-1-yl]-4-methyl-pentanoylamino}-pyrazol-1-yl)-acetic acid ethyl ester] it is 0.21 µM. As for `CC(C)C[C@@H](C(=O)Nc1ccn(CC(=O)O)n1)N1CC(Oc2cccc(C3CC3)c2F)=CC1=O` [Example 149, (3-{(S)-2-[4-(3-Cyclopropyl-2-fluoro-phenoxy)-2-oxo-2,5-dihydro-pyrrol-1-yl]-4-methyl-pentanoylamino}-pyrazol-1-yl)-acetic acid], the “SC1.5 (concentration of activator that produced a 50% increase in the activity of GK)” value turned out to be 1.196 µM.

As for `CCOc1cccc(OC2=CC(=O)N([C@@H](CC(C)C)C(=O)Nc3cnc([C@H]4COC(C)(C)O4)cn3)C2)c1F` [Example 150, (S)-2-[4-(3-Ethoxy-2-fluoro-phenoxy)-2-oxo-2,5-dihydro-pyrrol-1-yl]-4-methyl-pentanoic acid [5-((S)-2,2-dimethyl-[1,3]dioxolan-4-yl)-pyrazin-2-yl]-amide], the “SC1.5 (concentration of activator that produced a 50% increase in the activity of GK)” value came to 0.2 µM. For the compound `CCOc1cccc(OC2=CC(=O)N([C@@H](CC(C)C)C(=O)Nc3cnc([C@H](O)CO)cn3)C2)c1F` [Example 151, (S)-2-[4-(3-Ethoxy-2-fluoro-phenoxy)-2-oxo-2,5-dihydro-pyrrol-1-yl]-4-methyl-pentanoic acid [5-((S)-1,2-dihydroxy-ethyl)-pyrazin-2-yl]-amide], the “SC1.5 (concentration of activator that produced a 50% increase in the activity of GK)” value turned out to be 0.063 µM. On to `CCOc1ccc(F)c(OC2=CC(=O)N([C@@H](CC(C)C)C(=O)Nc3cnc([C@H]4COC(C)(C)O4)cn3)C2)c1F` [Example 152, (S)-2-[4-(3-Ethoxy-2,6-difluoro-phenoxy)-2-oxo-2,5-dihydro-pyrrol-1-yl]-4-methyl-pentanoic acid [5-((S)-2,2-dimethyl-[1,3]dioxolan-4-yl)-pyrazin-2-yl]-amide], for which the “SC1.5 (concentration of activator that produced a 50% increase in the activity of GK)” value was 0.566 µM. `CCOc1ccc(F)c(OC2=CC(=O)N([C@@H](CC(C)C)C(=O)Nc3cnc([C@H](O)CO)cn3)C2)c1F` [Example 153, (S)-2-[4-(3-Ethoxy-2,6-difluoro-phenoxy)-2-oxo-2,5-dihydro-pyrrol-1-yl]-4-methyl-pentanoic acid [5-((S)-1,2-dihydroxy-ethyl)-pyrazin-2-yl]-amide]: the “SC1.5 (concentration of activator that produced a 50% increase in the activity of GK)” value stood at 0.207 µM. With `C=Cc1cccc(OC2=CC(=O)N([C@@H](CC(C)C)C(=O)Nc3cnccn3)C2)c1F` [Example 154, (S)-2-[4-(2-Fluoro-3-vinyl-phenoxy)-2-oxo-2,5-dihydro-pyrrol-1-yl]-4-methyl-pentanoic acid pyrazin-2-ylamide], the “SC1.5 (concentration of activator that produced a 50% increase in the activity of GK)” value was 0.172 µM. The figure for `CC(C)C[C@@H](C(=O)Nc1cnccn1)N1CC(Oc2cccc(C(O)CO)c2F)=CC1=O` (stereo partly drawn) [Example 155, (S)-2-{4-[3-(1,2-Dihydroxy-ethyl)-2-fluoro-phenoxy]-2-oxo-2,5-dihydro-pyrrol-1-yl}-4-methyl-pentanoic acid pyrazin-2-ylamide] is 1.717 µM; for `CC(C)C[C@@H](C(=O)Nc1ccn(CC(N)=O)n1)N1CC(Oc2cccc(C3CC3)c2F)=CC1=O` [Example 156, (S)-2-[4-(3-Cyclopropyl-2-fluoro-phenoxy)-2-oxo-2,5-dihydro-pyrrol-1-yl]-4-methyl-pentanoic acid (1-carbamoylmethyl-1H-pyrazol-3-yl)-amide] it is 0.406 µM. The figure for `CCC[C@@H](C(=O)Nc1ccn(C[C@@H](O)CO)n1)N1CC(Oc2c(F)cccc2F)=CC1=O` [Example 157, (S)-2-[4-(2,6-Difluoro-phenoxy)-2-oxo-2,5-dihydro-pyrrol-1-yl]-pentanoic acid [1-((R)-2,3-dihydroxy-propyl)-1H-pyrazol-3-yl]-amide] is 1.849 µM. Take `O=C(Nc1ccn(C[C@@H](O)CO)n1)C(CC1(F)CCCC1)N1CC(Oc2c(F)cccc2F)=CC1=O` (stereo partly drawn) [Example 159, 2-[4-(2,6-Difluoro-phenoxy)-2-oxo-2,5-dihydro-pyrrol-1-yl]-N-[1-((R)-2,3-dihydroxy-propyl)-1H-pyrazol-3-yl]-3-(1-fluoro-cyclopentyl)-propionamide]: the “SC1.5 (concentration of activator that produced a 50% increase in the activity of GK)” value amounted to 2.867 µM.

Regarding `COc1cccc(OC2=CC(=O)N([C@@H](CC(C)C)C(=O)Nc3ccn(C[C@@H](O)CO)n3)C2)c1` [Example 160, (S)-2-[4-(3-Methoxy-phenoxy)-2-oxo-2,5-dihydro-pyrrol-1-yl]-4-methyl-pentanoic acid [1-((R)-2,3-dihydroxy-propyl)-1H-pyrazol-3-yl]-amide], the “SC1.5 (concentration of activator that produced a 50% increase in the activity of GK)” value turned out to be 0.306 µM. Take `CCOc1cccc(OC2=CC(=O)N([C@@H](CC(C)C)C(=O)Nc3ccn(C[C@@H](O)CO)n3)C2)c1Cl` [Example 161, (S)-2-[4-(2-chloro-3-ethoxy-phenoxy)-2-oxo-2,5-dihydro-pyrrol-1-yl]-4-methyl-pentanoic acid [1-((R)-2,3-dihydroxy-propyl)-1H-pyrazol-3-yl]-amide]: the “SC1.5 (concentration of activator that produced a 50% increase in the activity of GK)” value was 0.042 µM. As to `CCOc1cccc(OC2=CC(=O)N([C@@H](CC(C)C)C(=O)Nc3ccn(C[C@@H](O)CO)n3)C2)c1` [Example 162, (S)-2-[4-(3-Ethoxy-phenoxy)-2-oxo-2,5-dihydro-pyrrol-1-yl]-4-methyl-pentanoic acid [1-((R)-2,3-dihydroxy-propyl)-1H-pyrazol-3-yl]-amide], the “SC1.5 (concentration of activator that produced a 50% increase in the activity of GK)” value came out at 0.307 µM. Turning to `CCOc1cccc(OC2=CC(=O)N([C@@H](CC(C)C)C(=O)Nc3ccn(CC(C)(C)O)n3)C2)c1` [Example 163, (S)-2-[4-(3-Ethoxy-phenoxy)-2-oxo-2,5-dihydro-pyrrol-1-yl]-4-methyl-pentanoic acid [1-(2-hydroxy-2-methyl-propyl)-1H-pyrazol-3-yl]-amide], the “SC1.5 (concentration of activator that produced a 50% increase in the activity of GK)” value was 0.239 µM. As to `COc1cccc(OC2=CC(=O)N([C@@H](CC3CCCCC3)C(=O)Nc3ccn(C[C@@H](O)CO)n3)C2)c1` [Example 164, (S)-3-Cyclohexyl-N-[1-((R)-2,3-dihydroxy-propyl)-1H-pyrazol-3-yl]-2-[4-(3-methoxy-phenoxy)-2-oxo-2,5-dihydro-pyrrol-1-yl]-propionamide], the “SC1.5 (concentration of activator that produced a 50% increase in the activity of GK)” value came out at 0.012 µM.
